According to US9877981B2, “NAD biosynthesis and precursors for the treatment and prevention of cancer and proliferation” (President and Fellows of Harvard College, priority 2012, dated 2018):
“Also recorded” adds a separate entry of the source.

Assays:
Format in all cases: in vivo
[1] = test system: skeletal muscle mitochondria; assay: Mitochondrial function in skeletal muscle of treated mice (membrane potential, ATP content, COX activity)
Procedure: (§1) C57BL/6J mice of 3, 6, 22, 24, or 30 months of age were obtained from the National Institutes of Aging mouse aging colony. Mice were acclimated for at least one-week prior to sacrifice. 3, and 24-month-old mice were given interperitoneal (IP) injections of 500 mg NMN/kg body weight per day or the equivalent volume of PBS for 7 consecutive days at 5:00 pm and 7:00 am on day 8 and sacrificed 4 hr after last injection. All animal studies followed the guidelines of and were approved by the Harvard Institutional Animal Care and Use Committee
Skeletal muscle mitochondria were isolated as described previously (Frezza et al., Nat. Protoc. 2:287-295 (2007)). Mitochondrial membrane potential, cytochrome c activity and succinate dehydrogenase were determined as described (Brautigan et al., Methods Enzymol. 53:128-164 (1978); Rolo et al., Biochim. Biophys. Acta. 1637:127-132 ([…]); Singer, T. P., Methods Biochem. Anal. 22:123-175 (1974)). ATP content was measured with a commercial kit according to the manufacturer's instructions (Roche).
(§2) C57BL/6J mice of 6, 22, or 30 months of age were obtained from the National Institutes of Aging mouse aging colony. Additionally 22 months old caloric restricted mice were also obtained from the National Institutes of Aging mouse aging colony. EGLN1 KO, SIRT1 KO and SIRT1 OE mice were generated as previously described (Minamishima et al., 2008; Price et al., 2012). Mice were acclimated for at least one-week prior to sacrifice. 3, 6, 22 and 24-month-old mice were given interperitoneal (IP) injections of 500 mg NMN/kg body weight per day or the equivalent volume of PBS for 7 consecutive days at 5:00 pm and 7:00 am on day 8 and sacrificed 4 hr after last injection.
(§3) Whole body SIRT1 overexpressor (SIRT1-tg) mice of 6 months of age were given interperitoneal (IP) injections of 300 mg DMOG/kg body weight per day or the equivalent volume of PBS for 5 consecutive days.
(§4) Whole body adult-inducible Egln1 knockout mice (Minamishima et al, 2007) were treated with IP injection of tamoxifen for 3 days after which they were allowed to rest. The mice were given interperitoneal (IP) injections of 500 mg NMN/kg body weight per day or the equivalent volume of PBS for 7 consecutive days at 5:00 pm and 7:00 am on day 8 and sacrificed 4 hr after last injection. All animal studies followed the guidelines of and were approved by the Harvard Institutional Animal Care and Use Committee.
Cytochrome c oxidase activity was polarographically determined based on the O2 consumption upon cytochrome c oxidation, as previously described (Brautigan et al., 1978). The reaction was carried out at 25° C. in 1.3 mL of standard respiratory medium (as in mitochondrial respiration) supplemented with 2 μM rotenone, 10 μM oxidized cytochrome c, 0.3 mg TritonX-100. Following addition of the sample, the reaction was initiated by adding 5 mM ascorbate plus 0.25 mM tetramethylphenylene-diamine (TMPD).
ATP content was measured with a commercial kit according to the manufacturer's instructions (Roche).

HIF-1α = assay: Immunoblot for HIF-1α in gastrocnemius of treated mice
Procedure: as §1
C57BL/6J mice of 6, 22, or 30 months of age were obtained from the National Institutes of Aging mouse aging colony. Additionally 22 months old caloric restricted mice were also obtained from the National Institutes of Aging mouse aging colony. EGLN1 KO, SIRT1 KO and SIRT1 OE mice were generated as previously described (Minamishima et al., 2008; Price et al., 2012). Mice were acclimated for at least one-week prior to sacrifice. […]
(§5) Protein extracts from tissue or C2C12 cells were obtained by lysis in ice-cold lysis buffer (150 mM NaCl, 10 mM Tris HCl (pH 7.4), 1 mM EDTA, 1 mM EGTA, 1% Triton X-100, 0.5% NP-40) supplemented with a cocktail of protease and phosphatase inhibitors (Roche). Protein content was determined by the Bradford protein assay (Biorad), and 50 μg proteins were run on SDS-PAGE under reducing conditions. […] The immunostaining was detected using horseradish peroxidase-conjugated anti-rabbit or anti-mouse immunoglobulin for 1 h at room temperature.
as §5, with “tissue” for “tissue or C2C12 cells”

[2] = test system: mitochondrial-encoded genes (ND1, Cytb, COX1 and ATP6); assay: qPCR of mitochondrial-encoded genes in gastrocnemius of treated mice
Source text: as §2, §3, §4
RNA from skeletal muscle tissue and C2C12 cells were extracted with RNeasy mini kit (Qiagen) according to the instructions and quantified using the NanoDrop 1000 spectrophotometer (Thermo Scientific). cDNA was synthesized with the iSCRIP cDNA synthesis kit (BioRad) using 600 ng of RNA. Quantitative RT-PCR reactions were performed using 1 μM of primers and LightCycler® 480 SYBR Green Master (Roche) on an LightCycler® 480 detection system (Roche). Calculations were performed by a comparative method (2-ΔCT) using 18S as an internal control. For mtDNA analysis, total DNA was extracted with DNeasy blood and tissue kit (Qiagen). mtDNA was amplified using primers specific for the mitochondrial cytochrome c oxidase subunit 2 (COX2) gene and normalized to genomic DNA by amplification of the ribosomal protein s18 (rps18) nuclear gene. Primers were designed using the IDT software (IDT) and the primer sequences can be found in Table 1.
RNA from skeletal muscle and aorta were extracted with RNeasy mini kit (Qiagen) according to the instructions and quantified using the NanoDrop 1000 spectrophotometer (Thermo Scientific). cDNA was synthesized with the iSCRIP cDNA synthesis kit (BioRad) using 600 ng of RNA. Quantitative RT-PCR reactions were performed using 1 μM of primers and LightCycler® 480 SYBR Green Master (Roche) on an LightCycler® 480 detection system (Roche). […]

[3] = SIRT1-tg mice, DMOG 300 mg/kg IP per day, 5 days, gastrocnemius
[4] = Egln1 KO mice treated with NMN 500 mg/kg IP 7 days, compared to WT controls
[5] = treated 24-month-old mice, NMN 500 mg/kg IP one week, skeletal muscle

| SMILES | increase in ATP levels observed in SIRT1-tg mice [1, 3] | HIF-1α protein (HIF-1α; SIRT1-tg mice, DMOG 300 mg/kg IP per day, 5 days) | increase in expression of mitochondrial-encoded genes observed in SIRT1-tg mice [2, 3] | ATP levels ([1]; 6- and 22-month-old mice, NMN one week, gastrocnemius) | ATP levels in skeletal muscle [1, 4] | ability of NMN to improve mitochondrial function (membrane potential) ([1]; SIRT1 KO mice vs WT, NMN or PBS, skeletal muscle mitochondria) | COX activity ([1]; old mice, NMN one week, gastrocnemius (FIG. 24H)) | mitochondrial membrane potential ([1]; treated 24-month-old mice, NMN 500 mg/kg IP one week, isolated skeletal muscle mitochondria) | ATP levels [1, 5] | COX activity [1, 5] | HIF-1α protein in muscle (HIF-1α; 3- and 24-month-old mice, NMN 500 mg/kg IP one week) | HIF-1α protein accumulation (HIF-1α; 6- and 22-month-old mice, NMN one week) | expression of mitochondrial-encoded genes ([2]; 22-month-old mice, NMN one week, gastrocnemius) | mitochondrial-encoded genes in skeletal muscle [2, 4] | ability of NMN to induce mitochondrially-encoded genes ([2]; SIRT1 KO mice vs WT, NMN or PBS, gastrocnemius) |
| --- | --- | --- | --- | --- | --- | --- | --- | --- | --- | --- | --- | --- | --- | --- | --- |
| COC(=O)CNC(=O)C(=O)OC [DMOG, dimethyloxaloylglycine] | abolished | increase HIF-1α | abolished the increase in the expression of mitochondrial-encoded genes | – | – | – | – | – | – | – | – | – | – | – | – |
| NC(=O)c1ccc[n+]([C@@H]2O[C@H](COP(=O)([O-])O)[C@@H](O)[C@H]2O)c1 [NMN, nicotinamide mononucleotide] | – | – | – | increase in ATP levels | did not restore | lost in animals lacking SIRT1 | increase | restoration of mitochondrial membrane potential to the levels of the young mice | increases in ATP levels | increases | reversed the age-induced increase in HIF-1α in muscle | reversed; also recorded: reduced the level of HIF-1α in muscle | restored | did not restore mitochondrial-encoded genes | lost in animals lacking SIRT1 |
